From PubChem BioAssay (NCI)
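Following 48 hours of exposure in 96-well plates, responses at five concentrations were used to interpolate endpoints linearly. GI50 marks 50% less growth. The concentration for full growth arrest is given as TGI.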

Tests used:
Assay in all cases: DTP human tumour cell line panel, 48 h
OVCAR-3 ovarian = tested on: OVCAR-3 ovarian
SK-MEL-28 melanoma = tested on: SK-MEL-28 melanoma
A549 NSCLC = tested on: A549 NSCLC
SR leukemia = tested on: SR leukemia
MALME-3M melanoma = tested on: MALME-3M melanoma
HOP-92 NSCLC = tested on: HOP-92 NSCLC
SNB-75 CNS = tested on: SNB-75 CNS
NCI-H522 lung = tested on: NCI-H522 lung
HCC-2998 colon = tested on: HCC-2998 colon
SF-268 CNS = tested on: SF-268 CNS
UO-31 renal = tested on: UO-31 renal
SW-620 colon = tested on: SW-620 colon
SN12C renal = tested on: SN12C renal
HOP-62 NSCLC = tested on: HOP-62 NSCLC
SNB-19 CNS = tested on: SNB-19 CNS
OVCAR-5 ovarian = tested on: OVCAR-5 ovarian
T-47D breast = tested on: T-47D breast
HS 578T breast = tested on: HS 578T breast
UACC-62 melanoma = tested on: UACC-62 melanoma
786-0 renal = tested on: 786-0 renal
M14 melanoma = tested on: M14 melanoma
RXF 393 renal = tested on: RXF 393 renal
HL-60(TB) leukemia = tested on: HL-60(TB) leukemia
OVCAR-4 ovarian = tested on: OVCAR-4 ovarian
LOX IMVI melanoma = tested on: LOX IMVI melanoma
SK-MEL-5 melanoma = tested on: SK-MEL-5 melanoma
NCI-H226 lung = tested on: NCI-H226 lung
MDA-MB-435 = tested on: MDA-MB-435
PC-3 prostate = tested on: PC-3 prostate
NCI/ADR-RES ovarian = tested on: NCI/ADR-RES ovarian
RPMI-8226 leukemia = tested on: RPMI-8226 leukemia
SF-539 CNS = tested on: SF-539 CNS
HT29 colon = tested on: HT29 colon
SF-295 CNS = tested on: SF-295 CNS
MDA-MB-231 breast = tested on: MDA-MB-231 breast
HCT-15 colon = tested on: HCT-15 colon
EKVX NSCLC = tested on: EKVX NSCLC
HCT-116 colon = tested on: HCT-116 colon
OVCAR-8 ovarian = tested on: OVCAR-8 ovarian
MOLT-4 leukemia = tested on: MOLT-4 leukemia
BT-549 breast = tested on: BT-549 breast
MCF7 breast = tested on: MCF7 breast
CCRF-CEM leukemia = tested on: CCRF-CEM leukemia
IGROV1 ovarian = tested on: IGROV1 ovarian
UACC-257 melanoma = tested on: UACC-257 melanoma
KM12 colon = tested on: KM12 colon
NCI-H460 lung = tested on: NCI-H460 lung
NCI-H23 lung = tested on: NCI-H23 lung
DU-145 prostate = tested on: DU-145 prostate
ACHN renal = tested on: ACHN renal
SK-MEL-2 melanoma = tested on: SK-MEL-2 melanoma
U251 CNS = tested on: U251 CNS
COLO 205 colon = tested on: COLO 205 colon
TK-10 renal = tested on: TK-10 renal
A498 renal = tested on: A498 renal
SK-OV-3 ovarian = tested on: SK-OV-3 ovarian
CAKI-1 renal = tested on: CAKI-1 renal
K-562 leukemia = tested on: K-562 leukemia

## CC(=O)/C=C/c1ccc(N(C)Cc2ccc(C(C)(C)C)cc2)cc1
OVCAR-3 ovarian
  GI50: 126 µM
  TGI: 264 µM
SK-MEL-28 melanoma
  GI50: 134 µM
  TGI: 279 µM
A549 NSCLC
  GI50: 156 µM
  TGI: 788 µM
SR leukemia
  GI50: 137 µM
  TGI: 499 µM
MALME-3M melanoma
  GI50: 138 µM
  TGI: 284 µM
HOP-92 NSCLC
  GI50: 129 µM
  TGI: 267 µM
SNB-75 CNS
  GI50: 145 µM
  TGI: 345 µM
NCI-H522 lung
  GI50: 128 µM
  TGI: 310 µM
HCC-2998 colon
  GI50: 149 µM
  TGI: 340 µM
SF-268 CNS
  GI50: 143 µM
  TGI: 332 µM
UO-31 renal
  GI50: 83.2 µM
  TGI: 212 µM
SW-620 colon
  GI50: 156 µM
  TGI: 441 µM
SN12C renal
  GI50: 141 µM
  TGI: 300 µM
HOP-62 NSCLC
  GI50: 194 µM
  TGI: 550 µM
SNB-19 CNS
  GI50: 218 µM
  TGI: 699 µM
OVCAR-5 ovarian
  GI50: 195 µM
  TGI: 490 µM
T-47D breast
  GI50: 47.8 µM
  TGI: 405 µM
HS 578T breast
  GI50: 193 µM
  TGI: 568 µM
UACC-62 melanoma
  GI50: 113 µM
  TGI: 255 µM
786-0 renal
  GI50: 155 µM
  TGI: 338 µM
M14 melanoma
  GI50: 132 µM
  TGI: 321 µM
RXF 393 renal
  GI50: 131 µM
  TGI: 272 µM
HL-60(TB) leukemia
  GI50: 69.1 µM
  TGI: 277 µM
OVCAR-4 ovarian
  GI50: 125 µM
  TGI: 330 µM
LOX IMVI melanoma
  GI50: 78.2 µM
  TGI: 208 µM
SK-MEL-5 melanoma
  GI50: 55.1 µM
  TGI: 184 µM
NCI-H226 lung
  GI50: 149 µM
  TGI: 315 µM
MDA-MB-435
  GI50: 114 µM
  TGI: 322 µM
PC-3 prostate
  GI50: 97.2 µM
  TGI: 465 µM
NCI/ADR-RES ovarian
  GI50: 114 µM
  TGI: 271 µM
RPMI-8226 leukemia
  GI50: 53.9 µM
  TGI: 237 µM
SF-539 CNS
  GI50: 161 µM
  TGI: 316 µM
HT29 colon
  GI50: 58.4 µM
SF-295 CNS
  GI50: 162 µM
  TGI: 576 µM
MDA-MB-231 breast
  GI50: 122 µM
  TGI: 293 µM
HCT-15 colon
  GI50: 89.7 µM
  TGI: 327 µM
EKVX NSCLC
  GI50: 84.4 µM
  TGI: 392 µM
HCT-116 colon
  GI50: 80.6 µM
  TGI: 290 µM
OVCAR-8 ovarian
  GI50: 148 µM
  TGI: 516 µM
MOLT-4 leukemia
  GI50: 116 µM
  TGI: 425 µM
BT-549 breast
  GI50: 133 µM
  TGI: 277 µM
MCF7 breast
  GI50: 45.5 µM
  TGI: 318 µM
CCRF-CEM leukemia
  GI50: 164 µM
  TGI: 903 µM
IGROV1 ovarian
  GI50: 241 µM
UACC-257 melanoma
  GI50: 143 µM
  TGI: 335 µM
KM12 colon
  GI50: 115 µM
  TGI: 317 µM
NCI-H460 lung
  GI50: 144 µM
  TGI: 376 µM
NCI-H23 lung
  GI50: 87.4 µM
  TGI: 550 µM
DU-145 prostate
  GI50: 147 µM
  TGI: 472 µM
ACHN renal
  GI50: 137 µM
  TGI: 271 µM
SK-MEL-2 melanoma
  GI50: 164 µM
  TGI: 344 µM
U251 CNS
  GI50: 125 µM
  TGI: 268 µM
COLO 205 colon
  GI50: 95.1 µM
  TGI: 275 µM
TK-10 renal
  GI50: 348 µM
  TGI: 890 µM
A498 renal
  GI50: 124 µM
  TGI: 251 µM
SK-OV-3 ovarian
  GI50: 217 µM
  TGI: 709 µM

## O=C(Nc1cccc(-n2cc(-c3ccncc3)c(-c3ccc(O)c(Cl)c3)n2)c1)Nc1ccc(Cl)c(C(F)(F)F)c1
SK-MEL-28 melanoma
  GI50: 1.67 µM
  TGI: 3.8 µM
A549 NSCLC
  GI50: 1.83 µM
  TGI: 5.86 µM
SR leukemia
  GI50: 1.6 µM
  TGI: 5.6 µM
MALME-3M melanoma
  GI50: 2.43 µM
  TGI: 7.59 µM
HOP-92 NSCLC
  GI50: 0.455 µM
  TGI: 2.93 µM
SNB-75 CNS
  GI50: 1.23 µM
  TGI: 6.85 µM
NCI-H522 lung
  GI50: 1.64 µM
  TGI: 4.16 µM
HCC-2998 colon
  GI50: 2.81 µM
  TGI: 6.98 µM
SF-268 CNS
  GI50: 2.46 µM
  TGI: 8.1 µM
UO-31 renal
  GI50: 2.65 µM
  TGI: 7.24 µM
SW-620 colon
  GI50: 2.78 µM
  TGI: 7.62 µM
SN12C renal
  GI50: 2.99 µM
  TGI: 13.4 µM
HOP-62 NSCLC
  GI50: 3.15 µM
  TGI: 9.77 µM
SNB-19 CNS
  GI50: 3.63 µM
  TGI: > 100 µM
OVCAR-5 ovarian
  GI50: 3.02 µM
  TGI: 13.9 µM
T-47D breast
  GI50: 2.07 µM
  TGI: 6.83 µM
HS 578T breast
  GI50: 1.3 µM
  TGI: 6.24 µM
UACC-62 melanoma
  GI50: 2.13 µM
  TGI: 5.07 µM
786-0 renal
  GI50: 2.08 µM
  TGI: 8.18 µM
M14 melanoma
  GI50: 1.79 µM
  TGI: 3.77 µM
RXF 393 renal
  GI50: 1.19 µM
  TGI: 3.74 µM
HL-60(TB) leukemia
  GI50: 2.55 µM
  TGI: 6.38 µM
OVCAR-4 ovarian
  GI50: 2.77 µM
  TGI: 9.97 µM
LOX IMVI melanoma
  GI50: 1.61 µM
  TGI: 3.21 µM
SK-MEL-5 melanoma
  GI50: 1.66 µM
  TGI: 3.07 µM
NCI-H226 lung
  GI50: 2.02 µM
  TGI: 4.46 µM
MDA-MB-435
  GI50: 1.98 µM
  TGI: 4.88 µM
PC-3 prostate
  GI50: 1.77 µM
  TGI: 4.36 µM
NCI/ADR-RES ovarian
  GI50: 2.96 µM
  TGI: 9.03 µM
RPMI-8226 leukemia
  GI50: 1.67 µM
  TGI: 4.63 µM
SF-539 CNS
  GI50: 1.76 µM
  TGI: 5.99 µM
HT29 colon
  GI50: 3.39 µM
  TGI: 11.3 µM
SF-295 CNS
  GI50: 1.88 µM
  TGI: 5.12 µM
MDA-MB-231 breast
  GI50: 1.84 µM
  TGI: 7.63 µM
HCT-15 colon
  GI50: 2.58 µM
  TGI: 10.9 µM
HCT-116 colon
  GI50: 2.4 µM
  TGI: 8.21 µM
MOLT-4 leukemia
  GI50: 1.64 µM
  TGI: 4.65 µM
BT-549 breast
  GI50: 1.82 µM
  TGI: 4.28 µM
MCF7 breast
  GI50: 1.8 µM
  TGI: 4.34 µM
CCRF-CEM leukemia
  GI50: 1.77 µM
  TGI: 6.31 µM
IGROV1 ovarian
  GI50: 2.82 µM
  TGI: 8.12 µM
UACC-257 melanoma
  GI50: 1.98 µM
  TGI: 4.39 µM
KM12 colon
  GI50: 1.61 µM
  TGI: 3.26 µM
NCI-H460 lung
  GI50: 2.56 µM
  TGI: 9.51 µM
NCI-H23 lung
  GI50: 2.1 µM
  TGI: 6.5 µM
DU-145 prostate
  GI50: 2.54 µM
  TGI: 7.76 µM
CAKI-1 renal
  GI50: 2.02 µM
  TGI: 7.33 µM
K-562 leukemia
  GI50: 2.44 µM
  TGI: 9.79 µM
ACHN renal
  GI50: 2.64 µM
  TGI: 10.9 µM
SK-MEL-2 melanoma
  GI50: 2.14 µM
  TGI: 4.28 µM
U251 CNS
  GI50: 1.7 µM
  TGI: 8.02 µM
COLO 205 colon
  GI50: 1.77 µM
  TGI: 3.32 µM
TK-10 renal
  GI50: 2.96 µM
  TGI: 7.16 µM
A498 renal
  GI50: 2.47 µM
  TGI: 7.75 µM
SK-OV-3 ovarian
  GI50: 3.14 µM
  TGI: 9.82 µM
